Data published in patent US20210386791A1, “METHODS OF CELLULAR REPROGRAMMING” (TissueTech, Inc., priority 2018, published 2021).

Test system: human corneal fibroblasts (HCF)
Assay: Time course of nuclear translocation (CD44-ICD, TAK1, JNK1, Cyclin D1, p75NTR) and CD44 immunoprecipitation in HCF treated with HC-HA/PTX3±TGFβ1±inhibitors
Type: cell-based
Settings: HC-HA/PTX3+TGFβ1 with inhibitor 10 μM; for nuclear translocation of CD44-ICD at 5 min: immunostaining and Western blotting
Experimental: Human corneal fibroblasts (P3) were seeded on plastics with or without immobilized HC-HA/PTX3 complex for 72 h in DMEM+10% FBS, then serum starved for 24 h and treated with or without TGFβ1 for 24 h before being harvested for mRNA quantitation or immunostaining. For determination of protein of TGFβ receptor or p75NTR, the cells were treated with or without TGF-β1 for 48 h before collection of protein samples because the protein expression lags behind mRNA expression. For TGF-β1 ELISA, the cells were treated with or without TGF-β1 for 24 h, and then cultured in the fresh medium for another 24 h. The supernatants were collected for TGFβ1 ELISA. For TGFβ2 and TGFβ3 ELISA, the cells were treated with or without TGFβ1 for 48 h. Certain HCF were seeded on glass in DMEM+10% FBS for 24 h, then in DMEM+ITS (insulin-transferrin-selenium) for 24 h, treated with/without PBS or hyaluronic acid (HA) or HC-HA/PTX3±TGFβ1 (10 ng/ml)±Marimastat (10 μM) or ±DAPT (10 μM) or ±both for 0, 5, 15, 30 and 45 minutes before being harvested for immunostaining of CD44-ICD, JNK1, Cyclin D1 and p75NTR and for 5 minutes before being harvested for Western blotting of cytoplasmic and nuclear CD44-ICD, active MT1-MMP, and active γ-secretase after compartmental separation of the cellular components.
HCF, induced human corneal endothelial cells (HCEC), and HCEC monolayer cultures were air-dried and fixed in 4% formaldehyde, pH 7.0, for 15 min at room temperature, rehydrated in PBS, incubated with 0.2% Triton X-100 for 15 min, and rinsed three times with PBS for 5 min each. After incubation with 2% BSA to block non-specific staining for 30 min, they were incubated with the desired first antibody (all at 1:50 dilution) for 16 h at 4° C. After three washes with PBS, they were incubated with corresponding Alexa-Fluor-conjugated secondary IgG (all 1:100 dilutions) for 60 min. The samples were then counterstained with Hoechst 33342 and analyzed with Zeiss LSM 700 confocal microscope (Thornhood, N.Y.). Corresponding mouse and rabbit sera were used as negative controls for primary monoclonal and polyclonal antibodies, respectively.
The native CD44 protein was immune-precipitated by Immunoprecipitation Kit (Abcam, ab206996) with CD44 antibody (Abcam, ab157107) following the vendor's instructions.
Cell lysates were prepared in radioimmunoprecipitation assay (RIPA) buffer or non-denature lysis buffer and resolved on 4-15% (w/v) gradient acrylamide gels for Western blotting. […] Immunoreactive proteins were detected with Western Lighting Chemiluminesence.

SMILES	nuclear translocation of TAK1, JNK1, Cyclin D1 and p75NTR at later time points	nuclear translocation of CD44-ICD at 5 min
C[C@H](NC(=O)Cc1cc(F)cc(F)c1)C(=O)N[C@H](C(=O)OC(C)(C)C)c1ccccc1 [DAPT]	inhibited	inhibited
CNC(=O)[C@@H](NC(=O)[C@H](CC(C)C)[C@H](O)C(=O)NO)C(C)(C)C [Marimastat]	inhibited	inhibited
